Patent US20090176798A1, “New compounds III” (Biovitrum AB, priority 2007, published 2009)

How the values were obtained:
JEG-3 cells [1] = experiment: [3H]-thymidine incorporation in JEG-3 cells (leptin assay in non-recombinant system); format: cell-based; settings: FIG. 5
Method: In JEG-3 cells (choriocarcinoma cell line) leptin is able to stimulate proliferation up to 3 fold (Biol. Reprod. (2007) 76: 203-10). […] The radioactivity incorporated by the cells is an index of their proliferative activity and is measured in counts per minute (CPM) with a liquid scintillation beta counter.
This finding can be applied to test whether a compound is able to either reproduce the effect of leptin on cell proliferation (leptin receptor agonist mimetic) (i.e., a given compound will cause an increase in incorporated [^3H]-Thymidine by the cells) or to inhibit the effect of leptin (antagonistic effect) by preventing the leptin-mediated increase in [^3H]-thymidine incorporation.
This approach has the advantage of using a non-recombinant system and has reasonable reproducibility and robustness.

JEG-3 cells [2] = settings: Biol. Reprod. (2007) 76: 203-10; cited from earlier work

EC50 (JEG-3 cells [1]; JEG-3 cells (choriocarcinoma cell line), read-out: EC50, increase in [3H]-thymidine incorporation): 2.1 nM
Substance: leptin: a hormone synthesized in fat cells that is believed to act in the hypothalamus to reduce food intake and body weight
concentration of maximal effect on [3H]-thymidine incorporation (JEG-3 cells [1]; JEG-3 cells): 100 nM | stimulation of proliferation (JEG-3 cells [2]): up to 3 fold
